Test results taken from patent US9938257B2 (Sunshine Lake Pharma Co., Ltd., priority 2015, dated 2018).

How the values were obtained:
JAK2 (h) = JAK2 (h) (Homo sapiens (Human), UniProt O60674); assay: JAK2 (h) kinase activity assay; assay type: biochemical
Experimental: (§1) The above assay procedure can be used to determine the IC50 for inhibition and/or the inhibition constant, Ki. The IC50 is defined as the concentration of compound required to reduce the enzyme activity by 50% under the condition of the assay. The IC50 value is estimated by preparing a 10 point curve using a ½ log dilution series (for example, a typical curve may be prepared using the following compound concentrations: 3 μM, 1 μM, 0.3 μM, 0.1 μM, 0.03 μM, 0.01 μM, 0.003 μM, 0.001 μM, 0.0003 μM and 0 μM).
JAK2 (h) is incubated with 8 mM MOPS pH 7.0, 0.2 mM EDTA, 100 μM […], 10 mM MgAcetate and [γ-^33P-ATP] (specific activity approx. 500 cpm/pmol, concentration as required). The reaction is initiated by the addition of the MgATP mix. After incubation for 40 minutes at room temperature, the reaction is stopped by the addition of 3% phosphoric acid solution. 10 μL of the reaction is then spotted onto a P30 filtermat and washed three times for 5 minutes in 75 mM phosphoric acid and once in methanol prior to drying and scintillation counting.
(§2) The kinase assays described herein were performed at Millipore UK Ltd, Dundee Technology Park, Dundee DD2 1SW, UK.

Aurora-A (h) = Aurora-A (h) (Homo sapiens (Human), UniProt O14965); assay: Aurora-A (h) kinase activity assay; assay type: biochemical
Experimental: as §1
Aurora-A (h) is incubated with 8 mM MOPS pH 7.0, 0.2 mM EDTA, 200 μM LRRASLG (Kemptide), 10 mM MgAcetate and [γ-^33P-ATP] (specific activity approx. 500 cpm/pmol, concentration as required). The reaction is initiated by the addition of the MgATP mix. After incubation for 40 minutes at room temperature, the reaction is stopped by the addition of 3% phosphoric acid solution. 10 μL of the reaction is then spotted onto a P30 filtermat and washed three times for 5 minutes in 75 mM phosphoric acid and once in methanol prior to drying and scintillation counting.
as §2

JAK1 (h) = JAK1 (h) (Homo sapiens (Human), UniProt P23458); assay: JAK1 (h) kinase activity assay; assay type: biochemical
Experimental: as §1
JAK1 (h) is incubated with 20 mM Tris/HCl pH 7.5, 0.2 mM EDTA, 500 μM GEEPLYWSFPAKKK, 10 mM MgAcetate and [γ-^33P-ATP] (specific activity approx. 500 cpm/pmol, concentration as required). The reaction is initiated by the addition of the MgATP mix. After incubation for 40 minutes at room temperature, the reaction is stopped by the addition of 3% phosphoric acid solution. 10 μL of the reaction is then spotted onto a P30 filtermat and washed three times for 5 minutes in 75 mM phosphoric acid and once in methanol prior to drying and scintillation counting.
as §2

FLT3 (h) = FLT3 (h) (Homo sapiens (Human), UniProt P36888); assay: FLT3 (h) kinase activity assay; assay type: biochemical
Experimental: as §1
FLT3 (h) is incubated with 8 mM MOPS pH 7.0, 0.2 mM EDTA, […] EAIYAAPFAKKK, 10 mM MgAcetate and [γ-^33P-ATP] (specific activity approx. 500 cpm/pmol, concentration as required). The reaction is initiated by the addition of the MgATP mix. After incubation for 40 minutes at room temperature, the reaction is stopped by the addition of 3% phosphoric acid solution. 10 μL of the reaction is then spotted onto a P30 filtermat and washed three times for 5 minutes in 75 mM phosphoric acid and once in methanol prior to drying and scintillation counting.
as §2

Aurora-B (h) = Aurora-B (h) (Homo sapiens (Human), UniProt Q96GD4); assay: Aurora-B (h) kinase activity assay; assay type: biochemical
Experimental: as §1
Aurora-B (h) is incubated with 8 mM MOPS pH 7.0, 0.2 mM EDTA, 30 μM AKRRRLSSLRA, 10 mM MgAcetate and [γ-^33PATP] (specific activity approx. 500 cpm/pmol, concentration as required). The reaction is initiated by the addition of the MgATP mix. After incubation for 40 minutes at room temperature, the reaction is stopped by the addition of a 3% phosphoric acid solution. 10 μL of the reaction is then spotted onto a P30 filtermat and washed three times for 5 minutes in 75 mM phosphoric acid and once in methanol prior to drying and scintillation counting.
as §2

[1] = Compound stability in human liver microsomes; assay type: in vitro ADME; details: pH 7.4; for half-life at 5 μM: human liver microsomes 0.5 mg protein/mL, compound 5 μM, NADPH 1.0 mM, 37° C., read-out: Human T1/2; for CLint scaled at 5 μM: human liver microsomes, in vivo CLint extrapolated
How it was run: (§3)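 LC/MS/MS read-out of parent remaining, as % of t=0, after 0, 5, 10, 15, 30 and 60 min at 37° C. Mix: microsomes 0.5 mg/mL, test compound 5 μM, NADPH 1.0 mM, phosphate pH 7.4. Denatured microsomes served as negative control. In vivo CLint extrapolated.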

[2] = Compound stability in rat liver microsomes; assay type: in vitro ADME; details: pH 7.4; for half-life at 5 μM: rat liver microsomes 0.5 mg protein/mL, compound 5 μM, NADPH 1.0 mM, 37° C., read-out: Rat T1/2; for CLint scaled at 5 μM: rat liver microsomes, in vivo CLint extrapolated
How it was run: as §3

[3] = Pharmacokinetics after intravenous and oral administration in rats; assay type: in vivo
How it was run: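 IV doses generally 0.5, 1 or 2 mg/kg; oral doses in rats generally 0.5, 1, 5 or 10 mg/kg, given as solution, suspension or capsule in various vehicles. Blood sampled over 0.083 or 0.25 h to 24 h; plasma analysed by LC/MS/MS.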

[4] = rat, plasma, iv dosing, dose 1 mg/kg

Chain of Aurora-A (h) (O14965 whole entry): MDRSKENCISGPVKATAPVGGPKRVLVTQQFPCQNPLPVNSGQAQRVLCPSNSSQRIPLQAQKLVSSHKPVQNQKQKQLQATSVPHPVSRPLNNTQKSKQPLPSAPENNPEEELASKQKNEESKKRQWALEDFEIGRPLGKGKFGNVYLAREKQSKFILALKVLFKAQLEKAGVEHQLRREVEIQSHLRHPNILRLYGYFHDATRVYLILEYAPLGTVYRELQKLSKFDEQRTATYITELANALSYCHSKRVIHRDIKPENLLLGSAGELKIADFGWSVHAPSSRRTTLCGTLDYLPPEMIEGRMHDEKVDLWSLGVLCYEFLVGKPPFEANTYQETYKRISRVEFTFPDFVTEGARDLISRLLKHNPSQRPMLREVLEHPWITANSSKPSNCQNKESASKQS
Chain of JAK1 (h) (P23458 whole entry): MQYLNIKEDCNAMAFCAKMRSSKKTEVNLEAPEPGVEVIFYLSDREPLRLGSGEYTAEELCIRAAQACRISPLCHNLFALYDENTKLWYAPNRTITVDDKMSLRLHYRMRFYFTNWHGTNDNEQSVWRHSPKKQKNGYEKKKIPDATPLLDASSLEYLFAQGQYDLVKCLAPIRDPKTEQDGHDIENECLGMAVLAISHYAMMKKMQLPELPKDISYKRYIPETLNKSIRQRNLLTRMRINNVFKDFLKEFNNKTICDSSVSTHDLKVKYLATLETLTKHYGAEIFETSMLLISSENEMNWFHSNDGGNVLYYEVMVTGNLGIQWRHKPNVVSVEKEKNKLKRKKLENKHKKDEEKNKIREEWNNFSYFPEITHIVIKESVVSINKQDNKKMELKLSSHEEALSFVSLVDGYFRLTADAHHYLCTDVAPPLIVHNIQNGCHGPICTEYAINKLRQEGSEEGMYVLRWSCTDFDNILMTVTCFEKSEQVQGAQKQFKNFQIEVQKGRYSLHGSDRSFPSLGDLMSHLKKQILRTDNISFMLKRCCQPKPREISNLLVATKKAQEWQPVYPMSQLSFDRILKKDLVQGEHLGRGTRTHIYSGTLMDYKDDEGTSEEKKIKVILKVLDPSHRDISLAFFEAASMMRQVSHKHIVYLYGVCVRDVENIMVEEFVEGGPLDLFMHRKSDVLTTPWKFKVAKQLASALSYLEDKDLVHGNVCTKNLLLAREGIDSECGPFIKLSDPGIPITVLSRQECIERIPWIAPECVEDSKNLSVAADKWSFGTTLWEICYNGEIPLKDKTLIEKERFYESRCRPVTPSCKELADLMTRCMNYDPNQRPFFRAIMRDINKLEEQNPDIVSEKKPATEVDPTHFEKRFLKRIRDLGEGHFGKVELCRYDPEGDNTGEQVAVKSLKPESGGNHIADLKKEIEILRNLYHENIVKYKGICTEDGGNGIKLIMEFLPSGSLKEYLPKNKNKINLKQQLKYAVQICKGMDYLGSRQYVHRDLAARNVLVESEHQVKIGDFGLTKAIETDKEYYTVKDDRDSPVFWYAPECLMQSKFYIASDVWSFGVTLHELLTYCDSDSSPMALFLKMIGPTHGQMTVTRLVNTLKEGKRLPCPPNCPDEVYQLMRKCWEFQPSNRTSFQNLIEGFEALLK
Chain of JAK2 (h) (O60674 whole entry): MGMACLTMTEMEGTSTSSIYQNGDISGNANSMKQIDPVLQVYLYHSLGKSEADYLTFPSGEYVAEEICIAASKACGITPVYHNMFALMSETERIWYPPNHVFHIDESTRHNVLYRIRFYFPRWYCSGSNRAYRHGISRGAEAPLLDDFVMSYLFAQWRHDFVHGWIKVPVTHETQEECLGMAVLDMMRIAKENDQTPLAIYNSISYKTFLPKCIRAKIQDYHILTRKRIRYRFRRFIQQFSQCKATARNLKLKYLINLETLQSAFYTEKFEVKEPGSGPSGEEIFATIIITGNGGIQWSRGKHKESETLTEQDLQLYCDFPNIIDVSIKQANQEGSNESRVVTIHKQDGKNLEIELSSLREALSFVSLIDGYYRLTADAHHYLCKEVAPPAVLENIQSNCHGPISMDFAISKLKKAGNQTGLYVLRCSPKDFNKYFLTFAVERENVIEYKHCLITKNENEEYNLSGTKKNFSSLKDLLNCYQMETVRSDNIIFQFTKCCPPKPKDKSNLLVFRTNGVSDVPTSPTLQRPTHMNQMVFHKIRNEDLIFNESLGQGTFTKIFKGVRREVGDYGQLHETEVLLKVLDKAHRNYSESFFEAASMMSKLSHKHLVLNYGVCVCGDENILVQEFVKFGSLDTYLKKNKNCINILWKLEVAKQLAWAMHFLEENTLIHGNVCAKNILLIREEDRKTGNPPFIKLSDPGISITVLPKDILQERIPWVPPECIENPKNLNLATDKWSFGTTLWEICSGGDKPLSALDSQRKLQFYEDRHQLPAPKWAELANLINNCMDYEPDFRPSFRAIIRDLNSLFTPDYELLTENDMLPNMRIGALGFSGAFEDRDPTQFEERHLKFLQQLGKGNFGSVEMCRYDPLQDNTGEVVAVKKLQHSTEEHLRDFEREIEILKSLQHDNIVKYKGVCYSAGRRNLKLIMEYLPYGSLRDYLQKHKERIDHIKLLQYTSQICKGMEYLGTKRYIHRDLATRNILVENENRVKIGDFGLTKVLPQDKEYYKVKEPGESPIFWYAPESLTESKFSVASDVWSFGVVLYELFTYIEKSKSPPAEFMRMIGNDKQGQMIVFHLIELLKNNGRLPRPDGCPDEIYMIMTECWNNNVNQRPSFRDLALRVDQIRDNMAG
Chain of Aurora-B (h) (Q96GD4 whole entry): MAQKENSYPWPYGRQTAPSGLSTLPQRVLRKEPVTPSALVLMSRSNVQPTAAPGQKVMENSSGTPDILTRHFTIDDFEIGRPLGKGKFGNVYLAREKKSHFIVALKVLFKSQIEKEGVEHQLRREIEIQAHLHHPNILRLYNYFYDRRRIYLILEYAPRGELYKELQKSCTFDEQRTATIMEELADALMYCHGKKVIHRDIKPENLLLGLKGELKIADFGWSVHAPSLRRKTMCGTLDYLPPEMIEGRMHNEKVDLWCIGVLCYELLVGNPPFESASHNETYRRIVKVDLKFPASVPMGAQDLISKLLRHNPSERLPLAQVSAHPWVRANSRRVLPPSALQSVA
Chain of FLT3 (h) (P36888 27-993): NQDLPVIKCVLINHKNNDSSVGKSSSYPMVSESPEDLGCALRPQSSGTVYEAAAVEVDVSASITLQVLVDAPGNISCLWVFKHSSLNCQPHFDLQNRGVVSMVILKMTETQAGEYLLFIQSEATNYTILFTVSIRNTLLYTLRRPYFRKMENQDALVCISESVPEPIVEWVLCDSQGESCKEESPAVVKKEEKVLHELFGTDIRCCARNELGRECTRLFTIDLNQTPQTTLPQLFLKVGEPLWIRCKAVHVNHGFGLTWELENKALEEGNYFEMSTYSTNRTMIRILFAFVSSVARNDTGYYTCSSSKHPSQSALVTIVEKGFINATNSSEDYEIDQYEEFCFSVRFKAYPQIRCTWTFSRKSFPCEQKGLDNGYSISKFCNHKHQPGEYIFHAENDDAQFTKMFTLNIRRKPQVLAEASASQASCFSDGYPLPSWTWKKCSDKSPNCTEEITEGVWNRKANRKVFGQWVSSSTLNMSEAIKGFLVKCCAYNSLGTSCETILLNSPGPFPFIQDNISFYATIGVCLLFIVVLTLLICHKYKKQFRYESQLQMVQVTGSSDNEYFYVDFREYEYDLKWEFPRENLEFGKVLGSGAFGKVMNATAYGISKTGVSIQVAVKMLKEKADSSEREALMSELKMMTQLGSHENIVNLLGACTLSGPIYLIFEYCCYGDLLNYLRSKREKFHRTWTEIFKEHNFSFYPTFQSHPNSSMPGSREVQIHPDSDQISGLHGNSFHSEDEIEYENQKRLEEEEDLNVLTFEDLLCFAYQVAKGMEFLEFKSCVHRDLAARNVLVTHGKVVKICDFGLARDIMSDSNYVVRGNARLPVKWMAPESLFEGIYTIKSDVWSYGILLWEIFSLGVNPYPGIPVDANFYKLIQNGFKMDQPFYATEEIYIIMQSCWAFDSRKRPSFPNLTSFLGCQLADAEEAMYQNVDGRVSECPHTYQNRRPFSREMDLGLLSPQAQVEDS

| Compound | IC50 (JAK2 (h)) | IC50 (Aurora-A (h)) | IC50 (JAK1 (h)) | IC50 (FLT3 (h)) | IC50 (Aurora-B (h)) | half-life at 5 μM [1] | CLint scaled at 5 μM [1] | half-life at 5 μM [2] | CLint scaled at 5 μM [2] | Clearance (CL) after iv dosing ([3]; iv dosing, dose 1 mg/kg) | F ([3]; oral bioavailability, iv dose 1 mg/kg) | AUC(0-t) [3, 4] | half-life [3, 4] | Vd ([3]; rat, plasma, iv dosing, dose 1 mg/kg, read-out: Vss) |
| --- | --- | --- | --- | --- | --- | --- | --- | --- | --- | --- | --- | --- | --- | --- |
| CCOC(=O)N1CC2CC(Nc3nc(Nc4cnn(C)c4)ncc3Cl)CC2C1 (centres unmarked) [Ex. 15, ethyl 5-((5-chloro-2-((1-methyl-1H-pyrazol-4-yl)amino)pyrimidin-4-yl)amino)hexahydrocyclopenta[c]pyrrole-2(1H)-carboxylate] | 0.136 µM | 0.01 µM | 0.008 µM | 0.503 µM | 0.002 µM | – | – | – | – | – | – | – | – | – |
| CC(C)(O)Cn1cc(Nc2ncc(Cl)c(NC3CCC4(CC3)CCN(S(C)(=O)=O)CC4)n2)cn1 [Ex. 37, 1-(4-((5-chloro-4-((3-(methylsulfonyl)-3-azaspiro[5.5]undecan-9-yl)amino)pyrimidin-2-yl)amino)-1H-pyrazol-1-yl)-2-methylpropan-2-ol] | 0.131 µM | 0.071 µM | 0.002 µM | – | – | 0.905 h | 32 mL/min/kg | 1.17 h | 35.2 mL/min/kg | 29.3 mL/min/kg | 53.6% | 604 ng·h/mL | 1.25 h | 2.61 L/kg |

The next lines start with results.

| IC50 (JAK2 (h)) | IC50 (Aurora-A (h)) | IC50 (JAK1 (h)) | IC50 (FLT3 (h)) | IC50 (Aurora-B (h)) | Compound | half-life at 5 μM [1] | CLint scaled at 5 μM [1] | half-life at 5 μM [2] | CLint scaled at 5 μM [2] | Clearance (CL) after iv dosing ([3]; iv dosing, dose 1 mg/kg) | F ([3]; oral bioavailability, iv dose 1 mg/kg) | AUC(0-t) [3, 4] | half-life [3, 4] | Vd ([3]; rat, plasma, iv dosing, dose 1 mg/kg, read-out: Vss) |
| --- | --- | --- | --- | --- | --- | --- | --- | --- | --- | --- | --- | --- | --- | --- |
| 0.016 µM | 0.004 µM | < 0.0003 µM | – | – | COc1ccc(-n2cc(Nc3ncc(Cl)c(NC4CC5CN(C(=O)CC#N)CC5C4)n3)cn2)cn1 (centres unmarked) [Ex. 10, 3-(5-((5-chloro-2-((1-(6-methoxypyridin-3-yl)-1H-pyrazol-4-yl)amino)pyrimidin-4-yl)amino)hexahydrocyclopenta[c]pyrrol-2(1H)-yl)-3-oxopropanenitrile] | – | – | – | – | – | – | – | – | – |
| 0.02 µM | 0.008 µM | 0.0006 µM | – | – | N#CCC(=O)N1CC2CC(Nc3nc(Nc4cnn(-c5ccccn5)c4)ncc3Cl)CC2C1 (centres unmarked) [Ex. 7, 3-(5-((5-chloro-2-((1-(pyridin-2-yl)-1H-pyrazol-4-yl)amino)pyrimidin-4-yl)amino)hexahydrocyclopenta[c]pyrrol-2(1H)-yl)-3-oxopropanenitrile] | – | – | – | – | – | – | – | – | – |
| 0.142 µM | 0.011 µM | 0.012 µM | 1.02 µM | 0.002 µM | CCNC(=O)N1CC2CC(Nc3nc(Nc4cnn(C)c4)ncc3Cl)CC2C1 (centres unmarked) [Ex. 18, 5-((5-chloro-2-((1-methyl-1H-pyrazol-4-yl)amino)pyrimidin-4-yl)amino)-N-ethylhexahydrocyclopenta[c]pyrrole-2(1H)-carboxamide] | 2.42 h | 12 mL/min/kg | 0.158 h | 263 mL/min/kg | – | – | – | – | – |
